Literature values as cited in US6362158B1, “Multi-phase clear fabric softening composition” (Colgate-Palmolive Co., priority 2000, dated 2002).
Where “and” joins values, the source holds several entries; their conditions need not be identical. Equal values may be shown once. Read-outs that look alike come from different tables or passages of the source.

Conditions: solvent, logarithm to base 10 of P

SMILES	log P (octanol/water partition coefficient)	log P (octanol/water partition coefficient) (listed as dipropylene glycol n-propyl ether)
CCCCCO [Pentanol]	1.3	
OCCCCO [1-4 Butanediol]	(log P = −1.3)	
CCCCCCCCCCO [Decanol]	3.32)	
CCCCCCCCO [Octanol]	3.15)	
CCCOC(C)COC(C)CO (centres unmarked) [DPnP, dipropylene glycol n-propyl ether]	0.99)^2	0.994
CC(C)C(O)C(C)(C)CO (centres unmarked) [Trimethyl Pentanediol]	1.24	
CCCCOC(C)COC(C)COC(C)CO (centres unmarked) [TPnB, tripropylene glycol n-butyl ether]	1.896 and 1.9	
